The values that follow come from paper PMC10850954, “HDAC6/aggresome processing pathway importance for inflammasome formation is context-dependent” (The Journal of Biological Chemistry, 2024).

The subject of series [1] is pyrin inflammasome. Description: IL-18 release in U937-pyrin cells after BAA473 activation. It is filed as cell-based, human. Conditions: BAA473 200 μM 4 h, vs DMSO or XY-07-191 control.
Experimental: Cells were treated with the indicated compounds and HDAC6 was detected by immunoblotting with an anti-HDAC6 antibody. Detection of actin was used as a control for protein loading. […] Pyrin inflammasome was activated by BAA473 (200 μM) for 4 h at 37 °C. […] The graph at the bottom presents IL-18 release based on four independent experiments.
Human IL-1β and IL-18 were determined with Cisbio HTRF Cisbio Human IL1β (#62HIL1BPET) and Human IL18 (#62HIL18PEG) protocols. All the data were from 3 or 4 independent biological replicates.
For pyrin inflammasome, U937-pyrin cells were seeded in 96 well after 0.5 μM PMA treatment for 3 h and then challenged by BAA473 (200 μM) for 4 h at 37 °C.
Series [2] addresses T1, HDAC6 (Homo sapiens, UniProt Q9UBN7).
T1 sequence (Q9UBN7 1-1215): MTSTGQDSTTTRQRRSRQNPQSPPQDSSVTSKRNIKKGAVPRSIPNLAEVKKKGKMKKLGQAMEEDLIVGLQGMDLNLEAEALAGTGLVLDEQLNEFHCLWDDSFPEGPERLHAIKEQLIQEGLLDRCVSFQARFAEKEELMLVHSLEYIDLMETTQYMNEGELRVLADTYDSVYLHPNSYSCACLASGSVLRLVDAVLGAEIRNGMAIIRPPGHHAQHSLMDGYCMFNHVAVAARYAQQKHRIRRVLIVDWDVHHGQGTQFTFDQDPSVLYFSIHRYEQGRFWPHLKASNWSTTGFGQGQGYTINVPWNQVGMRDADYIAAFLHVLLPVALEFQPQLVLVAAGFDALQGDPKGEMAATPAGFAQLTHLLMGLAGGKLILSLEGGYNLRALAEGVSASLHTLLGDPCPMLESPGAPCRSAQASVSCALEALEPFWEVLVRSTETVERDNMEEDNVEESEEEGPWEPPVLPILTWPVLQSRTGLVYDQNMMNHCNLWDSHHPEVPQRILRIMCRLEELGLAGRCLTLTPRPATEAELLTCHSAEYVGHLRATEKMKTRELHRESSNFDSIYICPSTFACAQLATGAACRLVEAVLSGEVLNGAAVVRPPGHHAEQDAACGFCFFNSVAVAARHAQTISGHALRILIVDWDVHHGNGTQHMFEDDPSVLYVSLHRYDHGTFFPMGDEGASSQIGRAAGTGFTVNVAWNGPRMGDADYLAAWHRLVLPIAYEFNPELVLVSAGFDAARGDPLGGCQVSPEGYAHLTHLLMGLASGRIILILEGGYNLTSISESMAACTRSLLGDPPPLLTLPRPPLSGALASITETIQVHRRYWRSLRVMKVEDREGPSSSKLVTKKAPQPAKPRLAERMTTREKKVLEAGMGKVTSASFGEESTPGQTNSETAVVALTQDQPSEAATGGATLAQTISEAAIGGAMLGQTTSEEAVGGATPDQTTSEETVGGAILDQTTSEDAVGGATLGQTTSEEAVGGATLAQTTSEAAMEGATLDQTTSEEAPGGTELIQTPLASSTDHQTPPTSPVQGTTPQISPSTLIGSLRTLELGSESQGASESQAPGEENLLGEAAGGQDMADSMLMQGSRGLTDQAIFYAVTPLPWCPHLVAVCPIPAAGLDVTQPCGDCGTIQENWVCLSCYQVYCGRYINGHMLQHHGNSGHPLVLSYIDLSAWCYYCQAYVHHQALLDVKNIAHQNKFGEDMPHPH
On the set-up: method as in PMID 34314730. Conditions: cited from earlier work.

Series [3] concerns Jurkat cells. Description: CTG cell viability assay. Conditions: broad concentration range, 70 h. The class given is cell-based. The procedure:
(§1) U937, Jurkat, and HEK293T cells were plated with a density of 10^5 cells/ml, with 50 μl/well in a white 384 well plate (Corning #3570). Two hours after plating, XY-07-035 was dispensed to each well using HPd300e and incubated at 37 °C for 70 h. CellTiter-Glo (CTG) Luminescent Cell Viability Assay (Promega #G7572) was then used to measure cell viability. Aliquoted frozen CTG reagent and cell plates were warmed to room temperature prior to loading. After the plates were cooled to room temperature, the CTG reagent was loaded 15 μl/well with an electronic multichannel pipette. […] The luminescence signal was read over ten cycles for each data point on a PHERAstar FS microplate reader (BMG Labtech). The Relative abundance was calculated as the sum of the averages of duplicate individual 12-point dose-response data points.
(§2) Supplementary file mmc1.pdf: Supporting Figure S1 BMDM cells were primed by LPS (1 μg/ml) for 4 hrs and then challenged with 20 μM nigericin. 50 μl supernatant was collected every 15 min (up to 90 min) and mIL-1β level was determined by HTRF assay. […] DARPin F10 was detected by anti-HA antibody. […] Cells were treated with different concentrations of the degrader, and cell viability determined by CTG assay was normalized to the non-treated group. […] Supporting Figure S4: Cell viability was measured by resazurin assay, and fluorescence intensity was a representative of the viability.

Series [4] relates to HEK293T cells. Description: CTG cell viability assay. The class given is cell-based. Conditions: broad concentration range, 70 h. The procedure:
as §1, §2

For series [5], the system named is U937 cells. Description: CTG cell viability assay. The following applies: U937, broad concentration range, 70 h. The class given is cell-based, human. The procedure:
as §1, §2

The structures appear in SMILES notation.

Consider `CN(C(=O)CCCNc1cccc2c1C(=O)N(C1CCC(=O)NC1=O)C2=O)c1ccc(NC(=O)CCCCCCC(=O)NO)cc1` (centres unmarked) [XY-07-35], for which the “change in IL-18 secretion” value in series [1] was “did not result in any change”. In addition, in series [2], the “degradation profile (specificity)” value is “highly specific for HDAC6”. Moreover, the cellular toxicity result in series [3], in series [4] and in series [5] was “does not show cellular toxicity” each time.
